Test results from US20230002361A1, “2H-INDAZOLE DERIVATIVES AND THEIR USE IN THE TREATMENT OF DISEASE” (BIOGEN MA INC., priority 2019, published 2023).
Counter-ions that a name gives are not always drawn.

Key:
IRAK4 = biological target: T1, IRAK4 (Homo sapiens, UniProt Q9NWZ3); assay: IRAK4 MSD Biochemical Assay (1 mM ATP, 2 h); conditions: room temperature, read-out: IRAK4 MSD Biochemical Assay (1 mM ATP, 2 h) IC50
T1 construct: with 0.1 nM IRAK4, 1.6 μM of biotinylated peptide substrate and 10 μM ATP
T1 sequence (Q9NWZ3 1-460): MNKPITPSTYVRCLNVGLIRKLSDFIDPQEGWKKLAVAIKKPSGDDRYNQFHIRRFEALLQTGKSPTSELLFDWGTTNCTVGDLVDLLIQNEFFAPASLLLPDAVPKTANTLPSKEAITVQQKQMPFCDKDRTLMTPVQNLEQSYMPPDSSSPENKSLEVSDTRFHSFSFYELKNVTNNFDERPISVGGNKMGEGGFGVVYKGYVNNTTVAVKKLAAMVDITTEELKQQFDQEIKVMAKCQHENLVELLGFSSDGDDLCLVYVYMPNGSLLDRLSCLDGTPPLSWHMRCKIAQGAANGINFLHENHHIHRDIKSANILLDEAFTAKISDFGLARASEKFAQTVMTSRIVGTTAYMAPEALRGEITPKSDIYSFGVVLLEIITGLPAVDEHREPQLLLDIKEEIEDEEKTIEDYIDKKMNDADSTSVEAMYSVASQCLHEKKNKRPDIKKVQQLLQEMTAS
In short: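 Run with 1 mM ATP and […] for 2 h, then quenched with EDTA, pH 8. The phosphorylated biotinylated peptide was captured on streptavidin plates and detected with anti-phospho-threonine antibody plus Sulfo-Tag secondary by MSD electrochemiluminescence.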

MDR1 (P-gp) = biological target: T2, MDR1 (P-gp) (Homo sapiens, UniProt P08183); assay: MDR1-MDCK assay (efflux ratio); type: in vitro ADME; conditions: human, MDCK-MDR1, 1 μM compound, 120 minutes incubation; read-out: MDR1-MDCK Efflux Ratio; (B-A/A-B)
T2 construct: host or cells: MDCK cells
T2 sequence (P08183 whole entry): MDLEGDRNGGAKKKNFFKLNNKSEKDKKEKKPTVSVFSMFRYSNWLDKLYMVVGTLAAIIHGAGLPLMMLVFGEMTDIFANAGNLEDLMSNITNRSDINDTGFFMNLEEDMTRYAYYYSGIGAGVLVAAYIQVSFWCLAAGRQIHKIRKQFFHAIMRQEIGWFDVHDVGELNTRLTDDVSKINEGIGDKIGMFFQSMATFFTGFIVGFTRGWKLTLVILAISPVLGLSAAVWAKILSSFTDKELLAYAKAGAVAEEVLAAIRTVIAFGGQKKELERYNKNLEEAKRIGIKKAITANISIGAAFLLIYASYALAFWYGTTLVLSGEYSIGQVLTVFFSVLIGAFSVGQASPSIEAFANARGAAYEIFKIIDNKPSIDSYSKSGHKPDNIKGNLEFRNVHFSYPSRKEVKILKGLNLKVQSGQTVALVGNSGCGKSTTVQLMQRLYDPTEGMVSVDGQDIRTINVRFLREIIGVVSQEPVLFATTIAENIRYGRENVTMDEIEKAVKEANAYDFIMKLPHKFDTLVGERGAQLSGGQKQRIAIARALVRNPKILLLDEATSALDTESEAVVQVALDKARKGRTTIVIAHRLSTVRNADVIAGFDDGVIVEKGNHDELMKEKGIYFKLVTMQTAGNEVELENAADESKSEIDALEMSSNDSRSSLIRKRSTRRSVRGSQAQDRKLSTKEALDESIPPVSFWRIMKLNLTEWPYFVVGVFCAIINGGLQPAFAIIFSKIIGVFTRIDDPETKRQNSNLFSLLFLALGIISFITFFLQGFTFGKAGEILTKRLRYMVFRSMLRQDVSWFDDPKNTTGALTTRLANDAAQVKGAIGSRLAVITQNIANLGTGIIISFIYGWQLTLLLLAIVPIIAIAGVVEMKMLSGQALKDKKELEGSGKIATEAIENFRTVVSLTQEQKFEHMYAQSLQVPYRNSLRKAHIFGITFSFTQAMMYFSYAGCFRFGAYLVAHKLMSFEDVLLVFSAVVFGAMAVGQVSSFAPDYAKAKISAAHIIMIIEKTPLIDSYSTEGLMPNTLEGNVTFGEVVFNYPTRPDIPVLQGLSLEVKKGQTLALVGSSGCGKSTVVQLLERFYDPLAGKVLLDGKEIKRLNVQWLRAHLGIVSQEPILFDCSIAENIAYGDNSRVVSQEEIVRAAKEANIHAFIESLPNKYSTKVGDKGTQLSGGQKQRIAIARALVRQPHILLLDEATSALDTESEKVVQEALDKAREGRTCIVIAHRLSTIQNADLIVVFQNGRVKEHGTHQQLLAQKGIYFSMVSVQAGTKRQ
In short: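 Human MDR1-transfected MDCK monolayers, cultured 7 days on transwell inserts with TEER checked, were dosed with compound at 1 μM in HBSS-HEPES. Transport was measured in both A-B and B-A directions. Efflux ratio came from the directional permeabilities, with mass balance also calculated.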

Structure (SMILES)	IC50 (IRAK4)	efflux ratio at 120 min, 1 μM (MDR1 (P-gp))
CC12CCC(n3cc4cc(C(=O)Nc5ccn(C(F)F)n5)c(OC5CCC5)cc4n3)(CC1)CO2 [Example 139, 6-cyclobutoxy-N-(1-(difluoromethyl)-1H-pyrazol-3-yl)-2-(1-methyl-2-oxabicyclo[2.2.2]octan-4-yl)-2H-indazole-5-carboxamide]	0.9 nM	0.8
COc1cccc(NC(=O)c2cc3cn(C[C@H]4CCOC4)nc3cc2OC)n1 (single isomer, unassigned) [Example 23]	51.3 nM	0.8
Cn1cccc(NC(=O)c2cc3cn(C[C@H]4CCOC4)nc3nc2OC2CCC2)c1=O (single isomer, unassigned) [Example 112]	3.4 nM	8.3
COc1cc2nn(CC3CCOC3)cc2cc1C(=O)Nc1ccccn1.O=C(O)C(F)(F)F (stereo not drawn) [Example 2, 6-Methoxy-N-(pyridin-2-yl)-2-((tetrahydrofuran-3-yl)methyl)-2H-indazole-5-carboxamide trifluoroacetate]	373 nM	1.7
CC(C)Oc1cc2nn(CCC(C)(C)O)cc2cc1C(=O)Nc1ccn(C(F)F)n1 [Example 33, N-(1-(difluoromethyl)-1H-pyrazol-3-yl)-2-(3-hydroxy-3-methylbutyl)-6-isopropoxy-2H-indazole-5-carboxamide]	4.3 nM	8.6
CC(C)Oc1nc2nn(C3CCOC3)cc2cc1C(=O)Nc1cnn2cccnc12 (stereo not drawn) [Example 37, 6-Isopropoxy-N-(pyrazolo[1,5-a]pyrimidin-3-yl)-2-(tetrahydrofuran-3-yl)-2H-pyrazolo[3,4-b]pyridine-5-carboxamide]	6.4 nM	2.2
COc1cccc(NC(=O)c2cc(OC)c3nn(CCC(C)(C)OC)cc3c2)n1.Cl [Example 15, 7-Methoxy-2-(3-methoxy-3-methylbutyl)-N-(6-methoxypyridin-2-yl)-2H-indazole-5-carboxamide hydrochloride]	124 nM	2.5
CC(C)Oc1cc2nn(C34COC(C)(C3)C4)cc2cc1C(=O)Nc1ccn(C)n1 [Example 92, 6-Isopropoxy-N-(1-methyl-1H-pyrazol-3-yl)-2-(1-methyl-2-oxabicyclo[2.1.1]hexan-4-yl)-2H-indazole-5-carboxamide]	4.8 nM	1.6
CC(C)Oc1nc2nn(CC3CCOC3)cc2cc1C(=O)Nc1ccn(C)n1 (stereo not drawn) [Example 79, 6-Isopropoxy-N-(1-methyl-1H-pyrazol-3-yl)-2-((tetrahydrofuran-3-yl)methyl)-2H-pyrazolo[3,4-b]pyridine-5-carboxamide]	10.6 nM	9.4
O=C(Nc1cccc(C(F)F)n1)c1cc2cn(CC3CCOC3)nc2cn1 (stereo not drawn) [Example 8, N-(6-(difluoromethyl)pyridin-2-yl)-2-((tetrahydrofuran-3-yl)methyl)-2H-pyrazolo[3,4-c]pyridine-5-carboxamide Trifluoroacetate]	275 nM	0.6
COc1cc2nn(C3CCOCC3)cc2cc1C(=O)Nc1ccccn1.O=C(O)C(F)(F)F [Example 6, 6-Methoxy-N-(pyridin-2-yl)-2-(tetrahydro-2H-pyran-4-yl)-2H-indazole-5-carboxamide trifluoroacetate]	187 nM	1.1
COCCCn1cc2cc(C(=O)Nc3cccc(OC)n3)c(OC(C)C)nc2n1.Cl [Example 61, 6-Isopropoxy-2-(3-methoxypropyl)-N-(6-methoxypyridin-2-yl)-2H-pyrazolo[3,4-b]pyridine-5-carboxamide hydrochloride]	3.7 nM	1.1
CC(C)Oc1nc2nn(CC3CCOC3)cc2cc1C(=O)Nc1ccn(C(F)F)n1 (stereo not drawn) [Example 80, N-(1-(difluoromethyl)-1H-pyrazol-3-yl)-6-isopropoxy-2-((tetrahydrofuran-3-yl)methyl)-2H-pyrazolo[3,4-b]pyridine-5-carboxamide]	6.4 nM	3.1

Continued, values first:

IC50 (IRAK4)	efflux ratio at 120 min, 1 μM (MDR1 (P-gp))	Structure (SMILES)
1 nM	0.4	COCCC(C)n1cc2cc(C(=O)Nc3cccc(C(F)F)n3)c(OC(C)C)cc2n1.Cl (stereo not drawn) [Example 59, N-(6-(difluoromethyl)pyridin-2-yl)-6-isopropoxy-2-(4-methoxybutan-2-yl)-2H-indazole-5-carboxamide hydrochloride]
1.2 nM	1.4	COc1ncccc1NC(=O)c1cc2cn(CC3CCOC3)nc2nc1OC(C)C (stereo not drawn) [Example 78, 6-Isopropoxy-N-(2-methoxypyridin-3-yl)-2-((tetrahydrofuran-3-yl)methyl)-2H-pyrazolo[3,4-b]pyridine-5-carboxamide]
0.4 nM	0.8	CC(C)Oc1nc2nn(C[C@H]3CCOC3)cc2cc1C(=O)Nc1cccc(C(F)F)n1 (single isomer, unassigned) [Example 106]
0.7 nM	1.1	CC(C)Oc1nc2nn([C@H]3CCCOC3)cc2cc1C(=O)Nc1cnn2cccnc12 (single isomer, unassigned) [Example 121]
2.4 nM	0.7	COc1cc2nn(C34COC(C)(C3)C4)cc2cc1C(=O)Nc1cccc(C(F)F)n1 [Example 87, N-(6-(difluoromethyl)pyridin-2-yl)-6-methoxy-2-(1-methyl-2-oxabicyclo[2.1.1]hexan-4-yl)-2H-indazole-5-carboxamide trifluoroacetate]
2.1 nM	5.3	Cn1cccc(NC(=O)c2cc3cn(C[C@@H]4CCOC4)nc3nc2OC2CCC2)c1=O (single isomer, unassigned) [Example 113]
2.2 nM	1.5	COCCCn1cc2cc(C(=O)Nc3cccc(C(F)(F)F)n3)c(OC(C)C)nc2n1.Cl [Example 60, 6-Isopropxy-2-(3-methoxypropyl)-N-(6-(trifluoromethyl)pyridin-2-yl)-2H-pyrazolo[3,4-b]pyridine-5-carboxamide hydrochloride]
0.2 nM	2.6	Cc1cnc2c(NC(=O)c3cc4cn(C5CCCOC5)nc4nc3OC3CCC3)cnn2c1 (single isomer, unassigned) [Example 131]
0.4 nM	4.2	Cc1cnc2c(NC(=O)c3cc4cn(C[C@H]5CCOC5)nc4nc3OC3CCC3)cnn2c1 (single isomer, unassigned) [Example 122]
1.9 nM	0.9	CC(C)Oc1cc2nn(C34CCC(C)(CC3)OC4)cc2cc1C(=O)Nc1ccn(C)n1 [Example 103, 6-Isopropoxy-N-(1-methyl-1H-pyrazol-3-yl)-2-(1-methyl-2-oxabicyclo[2.2.2]octan-4-yl)-2H-indazole-5-carboxamide]
0.6 nM	0.7	COc1ncccc1NC(=O)c1cc2cn(C34COC(C)(C3)C4)nc2cc1OC(C)C [Example 90, 6-Isopropoxy-N-(2-methoxypyridin-3-yl)-2-(1-methyl-2-oxabicyclo[2.1.1]hexan-4-yl)-2H-indazole-5-carboxamide trifluoroacetate]
2.2 nM	0.8	CC(C)Oc1cc2nn([C@H]3CCOC3)cc2cc1C(=O)Nc1cccc(C(F)F)n1 (single isomer, unassigned) [Example 44]
1 nM	1	CC(C)Oc1nc2nn(C[C@@H]3CCOC3)cc2cc1C(=O)Nc1cccc2ccnn12 (single isomer, unassigned) [Example 52]
0.1 nM	0.5	CC(C)Oc1cc2nn(C34COC(C)(C3)C4)cc2cc1C(=O)Nc1cccc(C(F)F)n1 [Example 88, N-(6-(difluoromethyl)pyridin-2-yl)-6-isopropoxy-2-(1-methyl-2-oxabicyclo[2.1.1]hexan-4-yl)-2H-indazole-5-carboxamide trifluoroacetate]
1.8 nM	3.1	CC(C)Oc1cc2nn(CC3CCOC3)cc2cc1C(=O)Nc1cnn2cccnc12 (stereo not drawn) [Example 39, 6-Isopropoxy-N-(pyrazolo[1,5-a]pyrimidin-3-yl)-2-((tetrahydrofuran-3-yl)methyl)-2H-indazole-5-carboxamide]
2 nM	2.6	O=C(Nc1ccn(C(F)F)n1)c1cc2cn(C[C@@H]3CCOC3)nc2nc1OC1CCCC1 (single isomer, unassigned) [Example 117]
2 nM	1.4	Cc1cccc(NC(=O)c2cc3cn(C4CCOCC4)nc3cc2OC(C)C)c1F [Example 68, N-(2-fluoro-3-methylphenyl)-6-isopropoxy-2-(tetrahydro-2H-pyran-4-yl)-2H-indazole-5-carboxamide]
